Earlier results on 1 compound are cited in patent US20050113418A1, “Administration of pharmaceuticals” (priority 1996, published 2005).

For this data set the following is noted: Lind et al, Gut 1983.

As to `COc1ccc2[nH]c([S+]([O-])Cc3ncc(C)c(OC)c3C)nc2c1` (stereo not shown) [Omeprazole, omeprazole], the plasma half-life was 30 to 60 min.
